Reference: PMC12476894, “Identification of α‑Azacyclic Acetamide-Based Inhibitors of P. falciparum Na^+ Pump (PfATP4) with Fast-Killing Asexual Blood-Stage Antimalarial Activity by Phenotypic Screening” (ACS Infectious Diseases, 2025)
In brackets after ≈: the same amount, converted by molar mass. Several values for one entry are separate records, joined by “and”; a condition that tells them apart may be missing. Identical values can stand only once. Like-named read-outs stand apart in the source and are kept apart here.

How the values were obtained:
[1] = test system: P. falciparum 3D7 parasites (Pf3D7); assay: 72 h SYBR Green growth inhibition, ABS P. falciparum 3D7 (Phillips Lab); assay type: cell-based, Plasmodium falciparum; conditions: Plasmodium falciparum, 3D7; 72 h SYBR Green assay; mean ± SEM (n)
[2] = test system: Dd2 PfATP4^F917L mutant clones; assay: 72 h SYBR Green growth inhibition, 2- or 3-selected Dd2 clones with PfATP4 F917L (Phillips Lab); assay type: cell-based, Plasmodium falciparum; conditions: for EC50: Plasmodium falciparum
Protocol: (§1) To confirm the MOA for the α-azacyclic acetamides against P. falciparum and to obtain potential information about whether or not they bind PfATP4 at an overlapping site with that of KAE609, we undertook resistance selections using PfDd2 parasites using the published cycling drug selection method. , α-Azacyclic acetamides 2 and 3 were chosen as representative examples of the pyrrole- and indole-based series, respectively. […] Additional cycles were performed at 20 × EC50, until resistant parasites were detected based on a fold change in EC50 compared to the parental clonal Dd2 line (Table S3). Resistant parasites were detected in the 2-selections in all 4 flasks after 4 pulses and for 3-selections in 3 flasks after 5 pulses. Clonal lines were generated from each flask, and one clone per flask was selected for WGS and EC50 determination (Tables S4 and S5). WGS analysis identified two single point mutations in PfATP4 that were not present in the original clonal Dd2 parasite line (Tables and S4). P412L was found in three of four flasks containing 2-selected resistance clones, and F917L was identified in all three flasks containing 3-selected clones and in the fourth flask containing 2-selected clones (Table S4). PfATP4 mutations identified by the WGS analysis in parasite lines were verified by PCR of the pfatp4 gene, followed by Sanger sequencing (Figures S5, S6 and Table S6). An additional protein coding gene (ribosomal protein S8e) was mutated in the 2-selections. However, this mutation was identified in only one of four sequenced clones and is therefore unlikely to be related to resistance to 2 (Figure S7). All three resistant clones derived from the 3-selections harbored an identical mutation in a gene (pfcpu) encoding a conserved protein of unknown function, which was absent in the parental line (Figure S8).
(§2) ABS P. falciparum 3D7, Dd2 or PfNF54^luc parasites (BEI resources) were cultured in RPMI 1640 medium (Millipore Sigma), supplemented with 25 mM HEPES, 0.5% Albumax-I (Thermo Scientific), 23 mM sodium bicarbonate, 92 μM hypoxanthine, and 10 μg/mL gentamicin sulfate at 37 °C, 5% CO2, using deidentified O^+ red blood cells (BioIVT) as previously described. − Growth inhibition assays were conducted in 96 well plate format using the SYBR Green or luciferase reporter assay depending on the strain with modifications as described , (see Supporting Information for a detailed description). Details for the luciferase reporter assay are described below under the BRRoK assay section.
(§3) EC50 and CC50 values were determined by nonlinear regression performed in GraphPad Prism Version 10. Unless otherwise specified, data were fitted to the log(inhibitor) vs response–variable slope with four parameters equation. […] For mutant cell lines and compound combinations where bottom plateau of zero growth was not reached, the bottom of the curve was defined at 0% based on background values obtained for parental Dd2 from the same study.
(§4) Resistant Dd2 parasites were selected using a high-pressure intermittent selection protocol using a previously described method. Selections were set up using 4 flasks per compound starting with approximately 3 × 10^9 parasites per flask (80 mL per flask, 4% hematocrit, 3% parasitemia at the beginning of each pulse, mostly ring-stage parasites via previous sorbitol synchronization. Pulse 1 and 2 (48 h) were conducted at 10xEC50, and subsequent pulses were conducted at 20xEC50. Parasites cleared within 48 h under these conditions. 3-Selections used a total of 4 pulses, while 2-selections required 5 pulses before resistant parasites emerged (Table S3). Culture media was replenished daily for a week after each pulse, then every 2 days with weekly replenishment of blood. Cultures were monitored by microscopy until recrudescence. Clonal parasites were obtained from each flask by limiting dilution and maintained in drug free RPMI-1640 media prior to being analyzed for EC50 shifts. […]

[3] = test system: P. falciparum Dd2 (PfDd2) parasites; assay: 72 h SYBR Green growth inhibition, ABS P. falciparum Dd2 (Phillips Lab); assay type: cell-based, Plasmodium falciparum; conditions: Plasmodium falciparum, DD2, 72 h, read-out: PfDd2 EC50
Dd2-B2 (PfATP4^WT) = assay: Drug susceptibility assay for cross-resistance profiling (Fidock Lab), parental line; assay type: cell-based, Plasmodium falciparum; conditions: for EC50: Plasmodium falciparum
[4] = test system: isolated Pf3D7 trophozoites, [Na+]cyt; assay: Measurement of P. falciparum cytosolic Na+ concentration (SBFI); assay type: cell-based, Plasmodium falciparum; conditions: 50 nM
Protocol: Measurements were carried out in 96 well plates (excitation wavelengths: 340 and 380 nm; emission wavelength: 515 nm), as described previously. Fluorescence ratio values (340 nm/380 nm) were converted to [Na^+]cyt using a calibration procedure in which parasites were suspended in solutions of varying [Na^+] containing ionophores.

Dd2^L350H (PfATP4^L350H) = assay: Drug susceptibility assay for cross-resistance profiling (Fidock Lab), L350H; assay type: cell-based, Plasmodium falciparum; conditions: Table 3 data set
[5] = test system: Dd2 PfATP4^P412L mutant clones; assay: 72 h SYBR Green growth inhibition, 2-selected Dd2 clones with PfATP4 P412L (Phillips Lab); assay type: cell-based, Plasmodium falciparum; conditions: for EC50: Plasmodium falciparum
Protocol: as §1, §2, §3, §4

[6] = test system: Pf3D7 trophozoite-stage parasites, cytosolic pH (pHcyt); cell-based assay for ATP4 inhibition; assay: P. falciparum cytosolic dose response pH assay (BCECF, with concanamycin A); conditions: for EC50: Plasmodium falciparum, read-out: Pf3D7 pH EC50
Dd2^P412L (PfATP4^P412L) = assay: Drug susceptibility assay for cross-resistance profiling (Fidock Lab), P412L; assay type: cell-based, Plasmodium falciparum; conditions: Table 3 data set
PfD10 attB + yDHODH = assay: 72 h SYBR Green growth inhibition, strain expressing yeast DHODH; assay type: cell-based; conditions: Plasmodium falciparum, read-out: PfD10 attB + yDHODH EC50, 72 h SYBR Green assay
[7] = test system: P. falciparum NF54^luc parasites; assay: Luciferase reporter (LR) / BRRoK assay, PfNF54^luc; assay type: cell-based, Plasmodium falciparum; conditions: Plasmodium falciparum, NF54, Hec50; luciferase reporter, 6 h
physchem = conditions: kinetic from dmso stock
[8] = Human HepG2 cytotoxicity assay (CellTiter Glo); assay type: cell-based; conditions: HepG2 cells
PfD10 attB = assay: 72 h SYBR Green growth inhibition, PfD10 attB; assay type: cell-based; conditions: Plasmodium falciparum; 72 h SYBR Green assay
in vitro = in vitro ADME; conditions: human liver microsomes, 1 µM compound, 0.4 mg/mL protein
[9] = test system: P. falciparum NF54^luc parasites; assay: 72 h SYBR Green growth inhibition, PfNF54^luc; assay type: cell-based; conditions: Plasmodium falciparum, 72 h SYBR Green assay, read-out: PfNF54^luc EC50
[10] = test system: P. falciparum NF54^luc parasites; assay: Luciferase reporter (LR) / BRRoK assay, PfNF54^luc; assay type: cell-based; conditions: Plasmodium falciparum, NF54, Hec50, 72 h
[11] = DD2, read-out: EC50, 2-resistant Flask 1 Clone B6
[12] = DD2, read-out: EC50, 3-resistant Flask 2 Clone D10
[13] = DD2, read-out: EC50, 3-resistant Flask 3 Clone D8
[14] = DD2, read-out: EC50, 3-resistant Flask 4 Clone B3
[15] = DD2, read-out: EC50, 3-selected flask #3 clone D8
[16] = Plasmodium falciparum, DD2, 15-selected line
[17] = DD2, read-out: EC50, 2-resistant Flask 2 Clone F9
[18] = DD2, read-out: EC50, 2-resistant Flask 3 Clone F5
[19] = DD2, read-out: EC50, 2-resistant Flask 4 Clone E10
[20] = DD2, read-out: EC50, 2-selected flask #3 clone F5

SMILES	EC50 [1] [µM]	EC50 [2, 11] [µM]	EC50 [2, 12] [µM]	EC50 [2, 13] [µM]	EC50 [2, 14] [µM]	EC50 [2, 15] [µM]	Fold EC50 change compared to WT Dd2, 3-selected flask #3 clone D8 [2] [fold]	EC50 [3] [µM]	EC50 [5, 17] [µM]	EC50 [5, 18] [µM]	EC50 [5, 19] [µM]	EC50 [5, 20] [µM]	Fold EC50 change compared to WT Dd2, 2-selected flask #3 clone F5 [5] [fold]	EC50 [6] [µM]	further results
C[C@H]1Cc2c([nH]c3cc(Cl)c(F)cc23)[C@@]2(N1)C(=O)Nc1ccc(Cl)cc12 [KAE609, cipargamin, reference compound]	0.001 ± 3.8e-05	0.012 ± 0.00098	0.012 ± 0.00034	0.012 ± 0.00097	0.014 ± 0.0009	0.012 ± 0.00058	11	0.0012 ± 8.7e-05	0.014 ± 0.0014	0.012 ± 0.0014	0.014 ± 0.0011	0.013 ± 0.0011	11	0.003 ± 0.0021	EC50 (Dd2-B2 (PfATP4^WT); DD2, 72 h, read-out: EC50, Dd2-B2): 0.0013 ± 0.0001 µM; EC50 (Dd2-B2 (PfATP4^WT); DD2, read-out: EC50, Dd2-B2): 0.0021 µM; Fold change, Dd2-B2 (Dd2-B2 (PfATP4^WT); parent, Table S8): 1 fold; increase in [Na+]cyt (in words) [4]: increase in [Na^+]cyt; EC50 (Dd2^L350H (PfATP4^L350H); [16]): 0.0048 ± 0.0003 µM; EC50 fold-change vs Dd2-B2, Dd2^L350H (Dd2^L350H (PfATP4^L350H)): 3.7 fold and 4- to 6 fold; difference between pH EC50 and growth inhibition EC50 ([6]; Pf3D7, 72 h SYBR Green vs pH assay): ≤ 3.2 fold; effect on parasite cytosolic pH (pHcyt) in presence of CMA (in words) ([6]; Pf3D7, CMA 50 nM): increase in pHcyt; EC50 (Dd2^P412L (PfATP4^P412L); [16]): 0.011 ± 0.0007 µM; EC50 fold-change vs Dd2-B2, Dd2^P412L (Dd2^P412L (PfATP4^P412L)): 8.5 fold
COc1ccc(Cl)cc1NC(=O)Cn1cccc1-c1nnc(C2CC2)o1 [compound 1, N-(5-chloro-2-methoxyphenyl)-2-(2-(5-cyclopropyl-1,3,4-oxadiazol-2-yl)-1H-pyrrol-1-yl)acetamide]	2.5 ± 0.26	> 10	> 10	> 10	> 10	12 ± 0.46	4.6	2.4 ± 0.13	7.5 ± 2.4	7.6 ± 2	9.4 ± 2.5	8.3 ± 1.1	3.4	4.5 ± 2	EC50 (PfD10 attB + yDHODH): 3.2 µM; EC50 [7]: 3.2 ± 0.016 µM; solubility (physchem; pH 2, simulated gastric fluid): 25 µM (≈ 9.32 µg/mL); solubility (physchem; pH 6.5, aqueous buffer): 12.5 µM (≈ 4.66 µg/mL); CC50 at 96 h [8]: > 50 µM; EC50 (PfD10 attB): 2.9 µM; microsomal CLint (in vitro): 279 µL/min/mg; EC50 [9]: 3 ± 0.93 µM; EC50 [10]: 1.6 ± 0.075 µM
